Common to all, as to type: biochemical
In assay [1] the target is T1, mouse TAPL ΔTMD0 (Mus musculus, UniProt Q9JJ59).
T1 construct: thrombin cleavage site (C); eGFP (C); 10XHis (C); made in house; host or cells: Trichoplusia ni High Five (Hi5) insect cells, baculovirus (pVL1393)
T1 sequence (Q9JJ59 143-762): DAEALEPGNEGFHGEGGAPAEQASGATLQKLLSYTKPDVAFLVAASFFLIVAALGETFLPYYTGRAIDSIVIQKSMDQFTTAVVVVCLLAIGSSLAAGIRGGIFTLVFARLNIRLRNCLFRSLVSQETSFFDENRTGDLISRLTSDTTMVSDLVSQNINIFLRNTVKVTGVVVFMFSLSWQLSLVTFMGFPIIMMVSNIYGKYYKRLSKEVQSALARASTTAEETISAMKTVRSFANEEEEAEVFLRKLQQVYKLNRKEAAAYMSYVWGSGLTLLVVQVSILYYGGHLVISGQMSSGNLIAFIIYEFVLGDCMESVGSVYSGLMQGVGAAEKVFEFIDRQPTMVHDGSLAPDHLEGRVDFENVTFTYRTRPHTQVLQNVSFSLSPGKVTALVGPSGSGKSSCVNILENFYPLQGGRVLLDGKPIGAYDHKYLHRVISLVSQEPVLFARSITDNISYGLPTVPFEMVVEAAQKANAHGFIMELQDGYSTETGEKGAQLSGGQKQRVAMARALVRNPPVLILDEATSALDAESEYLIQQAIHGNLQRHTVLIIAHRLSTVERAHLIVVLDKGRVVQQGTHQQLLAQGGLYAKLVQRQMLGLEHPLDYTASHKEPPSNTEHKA
As to the kind of experiment: Dithionite-based flip-flop (floppase) assay of NBD*-labeled lipids, ΔTMD0 proteoliposomes. As to conditions: NBD*-labeled lipid; PE, PG, PC and cholesterol data not shown. How it is done:
All lipids used in reconstitution were purchased from Avanti Polar Lipids, Inc. (purity > 99%). The in vitro flip–flop assay was performed using NBD* dye-labeled proteoliposomes as described previously. Briefly, E. coli polar lipids and egg PC were mixed in a 1:1 molar ratio, and 0.5% (mol/mol) NBD*-lipid was added. The lipid mixture was then dried under nitrogen gas. The NBD*-lipids used were 18:1-06:0 NBD*-PS (1-oleoyl-2-{6-[(7-nitro-2-1,3-benzoxadiazol-4-yl)amino]hexanoyl}-sn-glycero-3-phosphoserine), 18:1-06:0 NBD*-PC (1-oleoyl-2-{6-[(7-nitro-2-1,3-benzoxadiazol-4-yl)amino]hexanoyl}-sn-glycero-3-phosphocholine), 18:1-06:0 NBD*-PG (1-oleoyl-2-{6-[(7-nitro-2-1,3-benzoxadiazol-4-yl)amino]hexanoyl}-sn-glycero-3-[phospho-rac-(1-glycerol)]), 18:1-06:0 NBD*-PE (1-oleoyl-2-{6-[(7-nitro-2-1,3-benzoxadiazol-4-yl)amino]hexanoyl}-sn-glycero-3-phosphoethanolamine), and 25-NBD*-Cholesterol (25-[N-[(7-nitro-2-1,3-benzoxadiazol-4-yl)methyl]amino]−27-norcholesterol). Thin lipid films were solubilized in 20 mM HEPES–NaOH pH 8.0, 200 mM NaCl and 5% (v/v) glycerol, incubated at RT for 30 min and subjected to 5 freeze–thaw cycles. After extrusion with a Mini-Extruder at 65 °C, final lipid concentrations were determined by phosphorus assays. Briefly, 10 μL of extruded lipid was added to 10 μL of 2% (w/v) ammonium molybdate and 300 μL of concentrated perchloric acid. The mixture was heated at 250 °C for 30 min, then cooled to RT and mixed with 1.5 mL of 0.4% (w/v) ammonium molybdate and 250 μL of 9% (w/v) L-ascorbic acid. It was again heated at 100 °C for 6 min and cooled to RT. Lipid concentrations were calculated from the absorbance at 820 nm using a standard curve prepared with NaH2PO4 solution. After accurately determining the lipid concentration, DM-purified protein and 5 mM lipid suspension (solubilized in 5 mM DM) were mixed 1:25 (w/w). After incubation at 4 °C for 1.5 h, DM detergent was removed with 75 mg Bio-beads SM-2 by periodic gentle shaking for 1 h at 4 °C (Supplementary Fig. 5a). The beads were replaced once, followed by an additional incubation at 4 °C for 2 h to completely remove detergent. The resulting proteoliposomes were collected by ultracentrifugation at 200,000×g for 1.5 h at 4 °C.
To measure the flip–flop activity, 10 μL of 2 mM NBD*-labeled proteoliposomes were added to 100 μL of reaction buffer (20 mM HEPES–NaOH pH 8.0, 200 mM NaCl, 5 mM ATP and 5% (v/v) glycerol) in the presence of 2 mM MgCl2 (or NaCl), and incubated at 37 °C for 1 h. The mixture was transferred to a 96-well plate and time-dependent fluorescence (λex/λem = 460/538 nm) was recorded every 30 s for 26 min using a fluorescence spectrophotometer (Gemini XPS). After the baseline fluorescence had stabilized, 10 mM sodium dithionite was added to quench the fluorescence of NBD*-lipid present in the outer leaflets of the liposomes. The initial rapid drop and subsequent slow decline in fluorescence intensity were monitored. When a new steady state was established, 1% (v/v) Triton X-100 was added to completely disrupt the liposomes. The net percentage of NBD*-lipid translocated across the lipid bilayer was calculated from the following equation[72]: the percentage of protected NBD*-lipid in the inner leaflet = [(FD−F0)/(FT−F0)]×100, and that of accessible NBD*-lipid in the outer leaflet = [(FT−FD)/(FT−F0)]×100, where FT is the total fluorescence of the sample before the addition of dithionite, FD is the fluorescence of the sample after quenching with dithionite, and F0 is any residual fluorescence of the sample after solubilization with Triton X-100. Fluorescence values (FT, FD, F0) were calculated as the averages of 5 points on the respective plateau lines. The ΔTMD0-mediated lipid floppase activity was determined by subtracting the percentage of NBD*-lipid fluorescence measured in the presence of Na^+/ATP from that measured in the presence of Mg^2+/ATP.

For assay [2], the target named is T1, mouse TAPL ΔTMD0. As to the kind of experiment: Lipid-stimulated ATPase assay, DM-purified ΔTMD0. As to conditions: lipid stimulation, 3 mM ATP. How it is done:
(§1) The ATPase activities of proteins obtained after various purification procedures were determined by NADH-coupled spectrophotometric assays. 10 μg of DM-purified or nanodisc-reconstituted protein was added to 140 μL of reaction buffer containing 50 mM HEPES–KOH pH 8.0, 60 μg/mL pyruvate kinase (Roche), 16 μg/mL lactate dehydrogenase (Roche), 10 mM phosphoenolpyruvate (Roche), 0.3 mM NADH, 3 mM ATP, 10 mM MgCl2, and 0.17% (w/v) DM in the presence or absence of 250 μM peptide. For proteins reconstituted into nanodiscs, DM was not added to the reaction buffer. For lipid-stimulated ATPase assays, the thin film of lipids was hydrated in 100 μL of buffer containing 50 mM HEPES–KOH pH 8.0 and 10 mM MgCl2 to yield a 10 mM solution. After sonication of the lipid solution for 10 min to decrease its turbidity, the reaction was initiated by adding varying concentrations of lipids to the mixture. ATP hydrolysis activity was monitored at 37 °C for 3 min by measuring the rate of decline of NADH absorbance at 340 nm. To inhibit ATP hydrolysis, the reaction mixture was incubated with 3 mM AMP-PNP or 8 mM NaF/2 mM BeSO4 for 5 min at RT. The kinetic parameters of ATP hydrolysis were calculated by fitting the initial rates of ATP hydrolysis to the Michaelis–Menten equation using PRISM 4.0 (GraphPad software).

Assay [3] concerns the target T1, mouse TAPL ΔTMD0. Put plainly: NADH-coupled ATPase assay, DM-purified ΔTMD0. How it is done: as §1
The target in assay [4] is T1, mouse TAPL ΔTMD0. As to the kind of experiment: Peptide transport assay, ΔTMD0 proteoliposomes. The settings on record: for reduction of peptide transport: 5-IAF-labeled peptide, ATP-dependent, relative to 9-mer; for Transport activity: peptide 10 mM (sic), + 3 mM ATP. Here is the method:
Proteoliposomes for peptide transport assays were prepared according to the protocol of Zhao et al., with some modifications. Briefly, E. coli polar lipid extract dissolved in chloroform was dried under a gentle stream of nitrogen. The thin film of lipids was placed under a desiccator overnight to completely remove residual chloroform and then hydrated in 1X PBS buffer pH 7.4 (137 mM NaCl, 2.7 mM KCl, 8 mM Na2HPO4, and 2 mM KH2PO4) with 10 mM MgCl2 and 5% (v/v) glycerol. After water bath sonication at 22 °C for 5 min (Powersonic 610, KLEENTEK), the lipid solution was extruded using a Mini-Extruder equipped with a polycarbonate membrane filter (200 nm pore) (Avanti Polar Lipids, Inc.) to obtain unilamellar vesicles, which were destabilized with 0.36% (w/v) DM. The DM-purified protein and lipid suspension were mixed in a 1:50 (w/w) ratio. After incubation at 4 °C for 2 h, the mixture was treated with Bio-Beads SM-2 resin (60 and 120 mg, see above) at 4 °C for a total of 18 h to remove detergent. The proteoliposomes were collected by centrifugation at 200,000×g for 1.5 h at 4 °C and resuspended in the buffer described above.
The peptide transport activity of ΔTMD0 was measured as described previously. Briefly, 50 μL of ΔTMD0-loaded proteoliposomes (~0.6 μg protein) were added into 200 μL reaction buffer containing 1X PBS pH 7.4, 3 mM ATP, and 10 mM MgCl2 in the presence or absence of 10 μM 5-IAF-labeled peptides. To investigate transport activity, the mixture was incubated at 37 °C for 10 min. The reaction was terminated by incubating the mixture for 20 min on ice. Proteoliposomes were collected by centrifugation at 200,000×g for 30 min and then washed twice with 1X PBS. The proteoliposomes were completely disrupted by adding 10% (w/v) SDS solution (final concentration, 2%). The transported peptide was measured using a microplate reader (Gemini XPS) with excitation at 485 nm and emission at 520 nm.

Setting [5] is: 9-mer + ATP set at 100%, 37 °C 10 min, mean n=3.

On to `CCCCCCCC/C=C\CCCCCCCC(=O)OC[C@H](COP(=O)(O)OCC(O)CO)OC(=O)CCCCCNc1ccc([N+](=O)[O-])c2nonc12` (mixture of isomers) [NBD*-PG, 1-oleoyl-2-{6-[(7-nitro-2-1,3-benzoxadiazol-4-yl)amino]hexanoyl}-sn-glycero-3-[phospho-rac-(1-glycerol)]], for which, on mouse TAPL ΔTMD0 [1], the “ATP-dependent lipid transport by ΔTMD0” value is “very low”.
As a reminder, the Km is the substrate concentration at which the rate is half of its maximum. For `CCCCCCCC/C=C\CCCCCCCC(=O)O[C@H](COC(=O)CCCCCCCCCCCCCCC)COP(=O)(O)OCC(O)CO` (mixture of isomers) [POPG, 1-palmitoyl-2-oleoyl-sn-glycero-3-phospho-(1’-rac-glycerol)], the “maximal ATPase activity (turnover)” value at mouse TAPL ΔTMD0 [2] came to 155 min⁻¹. For the same compound, at mouse TAPL ΔTMD0 [2] (means ± SEM), the Michaelis-Menten constant (Km) turned out to be 105 ± 16 µM and the “maximal ATPase activity (Vmax)” value is reported as 1147 ± 41 nmol/mg/min.
On to `Nc1ncnc2c1ncn2[C@@H]1O[C@H](COP(=O)(O)OP(=O)(O)NP(=O)(O)O)[C@@H](O)[C@H]1O` [AMP-PNP], for which the “ATP hydrolysis in presence of ATP analogs” value on mouse TAPL ΔTMD0 [3] (in the presence of 9-mer peptide) is recorded as “prevented ATP hydrolysis”.
A word on the Vmax: it is the top rate of the reaction or transport when substrate is in excess. Turning to `Nc1ncnc2c1ncn2[C@@H]1O[C@H](COP(=O)(O)OP(=O)(O)OP(=O)(O)O)[C@@H](O)[C@H]1O` [ATP], at mouse TAPL ΔTMD0 [3] (basal ATPase activity, DM-purified ΔTMD0), the maximum rate (Vmax) was found to be 394 ± 10 nmol/mg/min. For the same compound, the Michaelis constant (Km) on mouse TAPL ΔTMD0 [3] (basal ATPase activity, DM-purified ΔTMD0, read-out: Km for ATP) was 497 ± 61 µM.
Turning to `CCCCCCCC/C=C\CCCCCCCC(=O)OC[C@H](COP(=O)([O-])OCC[N+](C)(C)C)OC(=O)CCCCCNc1ccc([N+](=O)[O-])c2nonc12` [NBD*-PC, 1-oleoyl-2-{6-[(7-nitro-2-1,3-benzoxadiazol-4-yl)amino]hexanoyl}-sn-glycero-3-phosphocholine], the “ATP-dependent lipid transport by ΔTMD0” value on mouse TAPL ΔTMD0 [1] is “very low”.
Still for that read-out and setting: for `CCCCCCCC/C=C\CCCCCCCC(=O)OC[C@H](COP(=O)(O)OCCN)OC(=O)CCCCCNc1ccc([N+](=O)[O-])c2nonc12` [NBD*-PE, 1-oleoyl-2-{6-[(7-nitro-2-1,3-benzoxadiazol-4-yl)amino]hexanoyl}-sn-glycero-3-phosphoethanolamine] the value was “very low”.
With `CC(CCC[C@@H](C)[C@@H]1CC[C@H]2[C@@H]3CC=C4C[C@@H](O)CC[C@]4(C)[C@H]3CC[C@@]21C)N(C)c1ccc([N+](=O)[O-])c2nonc12` (stereo partly shown) [NBD*-cholesterol, 25-[N-[(7-nitro-2-1,3-benzoxadiazol-4-yl)methyl]amino]−27-norcholesterol], the “ATP-dependent lipid transport by ΔTMD0” value on mouse TAPL ΔTMD0 [1] was “failed to detect ΔTMD0-mediated translocation”.
As for `CCCCCCCC/C=C\CCCCCCCC(=O)OC(COC(=O)CCCCCCCCCCCCCCC)COP(=O)([O-])OCC[N+](C)(C)C` (stereo not shown) [POPC, 1-palmitoyl-2-oleoyl-glycero-3-phosphocholine], the “maximal ATPase activity (turnover)” value on mouse TAPL ΔTMD0 [2] came to 88 min⁻¹. At mouse TAPL ΔTMD0 [2] (means ± SEM), the “maximal ATPase activity (Vmax)” value is 649 ± 35 nmol/mg/min.
“RRYQNSTELRRYQNSTC^5-IAFL [18-mer, 5-IAF-labeled 18-mer peptide]”: at mouse TAPL ΔTMD0 [4], the “reduction of peptide transport” value was determined as 90%. In addition, the Transport activity at mouse TAPL ΔTMD0 [4] (setting [5]) is given as 10.0006%; on mouse TAPL ΔTMD0 [4] (replicate I), 11.6836%; at mouse TAPL ΔTMD0 [4] (replicate II), 10.1438%; at mouse TAPL ΔTMD0 [4] (replicate III), 8.174%.
The like results for “RRYQNSTELRRYQNSTELNSTC^5-IAFL [23-mer, 5-IAF-labeled 23-mer peptide]” were, in that order, 80%, 20.2607%, 20.4488%, 15.9535% and 24.3798%.

The record behind these values is paper PMC9532399, “The lysosomal transporter TAPL has a dual role as peptide translocator and phosphatidylserine floppase” (Nature Communications, 2022).
